One series deals with STK4 (Homo sapiens (Human), UniProt Q13043). Briefly: ADP-Glo kinase assay, STK4. Format: biochemical. As to conditions: ADP-Glo, 50 μM ATP; read-out: STK4 IC50. In a few lines: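 Full-length recombinant human STK3 (50 ng) phosphorylated 250 μg/mL myelin basic protein, and full-length STK4 (50 ng) phosphorylated 300 μg/mL Axltide, both at 50 μM ATP; ADP formed detected by ADP-Glo. Three experiments, each in triplicate.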
(In ADP-Glo the light output rises with the ADP produced.)

The target of another series is STK3 (Homo sapiens (Human), UniProt Q13188). Briefly: Thermal shift assay (ThermoFluor differential scanning fluorimetry). Format: binding. Conditions: for Tm shift: Tm of STK3 or STK4, text statement; for ΔTm at 10 µM: read-out: ΔTm. On the technique in general: In DSF a fluorescence change marks the thermal transition of the protein.
The test system of series [1] is YAP/TAZ-TEAD activity (8×GTIIC-luciferase) in HEK293 cells. Briefly: YAP-TAZ-TEAD luciferase assay. Format: cell-based. Conditions: 10 μM, 48 h, vs DMSO. The protocol:
8×GTIIC-luciferase was a gift from Stefano Piccolo (Addgene plasmid #34615, http://n2t.net/addgene: 34615: RRID: Addgene_34615). HEK293 cells were transfected with 8×GTIIC-luciferase plasmid and control Renilla luciferase plasmid using jetPRIME transfection reagent (Polyplus-transfection RSA: New York, NY. USA) for 24 h and cultured in Dulbeco's Modified Eagle Media (DMEM) Glutamax supplemented with 10% Fetal Bovine Serum (FBS), antibiotic/antimycotic, and sodium pyruvate (Gibco. Thermo FisherScientific: Waltham. MA. USA). The transfected cells were treated with 10 μM compound in triplicate and incubated for 48 h at 37° C. Firefly and Renilla luminescence were detected with a Dual-Glo Luciferase Assay System (Promega #E2920) according to the manufacturer's recommendations. The ratio of firefly to Renilla luminescence was calculated for each well and normalized to the ratio in control cells incubated with DMSO.
STK3/4 can negatively regulate the activity of the YAP/TAZ-TEAD protein complex and, accordingly, inactivation of these kinases reduces the transcription of YAP/TAZ-TEAD target genes. […] The results confirmed the intracellular on-target activity of our potent compounds for inhibiting STK3 and STK4 activity and targeting gene expression in the Hippo signaling pathway.

Series [2] in a line: In vivo plasma and liver concentrations, 20 mg/kg intraperitoneal. As to conditions: female, C57BL/6J, mouse, ip. The procedure:
(§1) All animal procedures were approved by the Sanford Burnham Prebys Medical Discovery Institute Institutional Animal Care and Use Committee and were performed according to the NIH guidelines for the Care and Use of Laboratory Animals. Adult female C57BL/6J mice were purchased from Jackson Laboratories and housed with free access to food and water on a 12 h light/dark cycle. Compounds were formulated in 5% DMSO, 10% Tween-80, and 85% H2O and injected intraperitoneally at 10 or 20 mg/kg. Blood samples were collected retro-orbitally at the indicated times and plasma was prepared by centrifugation. Livers were collected post mortem at the indicated times.
(§2) For quantification of compound, plasma samples were extracted with acetonitrile: water 4:1 with 0.1% formic acid containing indomethacin as an internal standard. Samples were centrifuged and the supernatants were diluted with acetonitrile: water and analyzed by LC-MS/MS using a Shimadzu Nexera X2 High-performance liquid chromatography (HPLC) (Shimadzu Scientific Instruments: Kyoto, Japan) coupled to an AB Sciex 6500 QTRAP (AB Sciex LLC: Toronto, Canada).
(§3) Adult female C57BL/6 mice (n=3/group) were intraperitoneally injected with vehicle or test compound (20 mg/kg), and blood samples and livers were collected at 30 min and 1 h post-injection, respectively. Plasma concentrations of all 13 compounds were >1.4 μM at 30 min after injection, and 10 compounds had liver concentrations >1.0 μM at 1 h after injection, as measured by LC-MS/MS, with particularly high plasma concentrations obtained with compounds 11 (15.9 μM), 16 (11.6 μM) and 105 (8.7 μM) (Table 5). To evaluate target engagement in vivo, the total and phosphorylated MOB1 levels in livers collected at 1 h post-injection was examined.
Tween 80 and water and were administered to mice by intraperitoneal injection. Blood samples and livers were collected at 30 min and 1 h post-dose, respectively. Plasma concentrations and relative pMOB1 levels were determined by LC-MS/MS and western blot analysis, respectively. (n=3).

Series [3] has as its system Thr35-phosphorylated MOB1 in liver. Briefly: Western blot analysis of p-MOB1 in mouse liver. Format: in vivo. Conditions: mice; for levels of Thr35-phosphorylated MOB1 in liver vs vehicle / Relative decrease in liver p-MOB1 level: 20 mg/kg intraperitoneal; for levels of Thr35-phosphorylated MOB1 in liver vs vehicle: 1 h, p<0.002; for Relative decrease in liver p-MOB1 level: 1 h post-dose. The protocol: […] Approximately 50 mg of liver tissue was placed in 1 mL Radioimmunoprecipitation assay (RIPA) buffer (50 mM Tris-HCl pH 8.0, 150 mM NaCl, 1.0% IGEPAL® CA-630, 0.5% sodium deoxycholate, and 0.1% SDS) containing phosphatase and protease inhibitor cocktails, homogenized with a PowerGen 125 homogenizer (Fisher Scientific), and then sonicated for 10 s. Homogenized tissues were centrifuged at 14,000×g at 4° C. for 20 min and the supernatants were recovered.
Protein concentrations in the supernatants were determined using a BCA assay (Pierce/Thermo Scientific). Proteins were separated on Novex™ WedgeWell™ 4-20% Tris-Glycine Gels (Invitrogen: Carlsbad, CA, USA) and transferred to polyvinylidene difluoride (Trans-Blot® Turbo™ Transfer Pack) membranes. Membranes were blocked in Tris-buffered saline Tween® 20 (50 mM Tris-HCl pH 7.6, 150 mM NaCl, 0.05% Tween 20: TBST) containing 3% Bovine Serum Albumin (BSA) for 1 h at room temperature and incubated overnight at 4° C. with primary antibodies as follows: 1:1000 dilution of anti-MOB1 (rabbit monoclonal antibody [mAb]#13730), 1:1000 anti-phospho-MOB1 Thr35 (rabbit mAb #8699), or 1:5000 anti-GAPDH (rabbit mAb #2118: all from Cell Signaling Technology: Danvers, MA, USA). Blots were rinsed three times with TBST and then incubated in 5% nonfat milk containing horseradish peroxidase (HRP)-conjugated mouse anti-rabbit IgG secondary Ab (Cell Signaling Technology) for 1 h at RT. Blots were washed three times with TBST, developed using Pierce® ECL Western Blotting reagent, and imaged and analyzed using with ImageJ software. Quantitative data are expressed as the level of phosphorylated MOB1 normalized to total MOB1.
as §3
In general terms: In western blotting, separated proteins are transferred to a membrane and probed.

The next series is described as follows: in vivo. As to conditions: female, C57BL/6J, mouse, ip, 10 mg/kg. The procedure:
as §1, §2

A further series in a line: Kinetic solubility. Format: physicochemical. The source says:
Data is represented as an average of a single experiment preformed in duplicate. Atenolol was used as an internal standard.

[4] abbreviates: mice, 20 mg/kg intraperitoneal, 30 min post-dose, read-out: Plasma concentration.
[5] abbreviates: FaSSGF, fassgf or other biorelevant, kinetic from dmso stock, FaSSGF, read-out: Solubility, FASSGF.
Where [6] appears, read: FaSSIF, kinetic from dmso stock, FaSSIF, read-out: Solubility, FaSSIF.
The mark [7] stands for this setting: PBS pH 7.4, pH 7.4, aqueous buffer, kinetic from dmso stock, PBS pH 7.4, read-out: Solubility, Buffer (pH = 7.4).

This is an account of results in patent US20250051337A1 (priority 2021, published 2025).

Each structure is given as a SMILES string. In brackets after ≈: the same amount, converted by molar mass. Where two headings read alike, the source gives them in different places. Marks after values point to notes of the source that are not given here.

Chain of STK4 (Q13043 whole entry): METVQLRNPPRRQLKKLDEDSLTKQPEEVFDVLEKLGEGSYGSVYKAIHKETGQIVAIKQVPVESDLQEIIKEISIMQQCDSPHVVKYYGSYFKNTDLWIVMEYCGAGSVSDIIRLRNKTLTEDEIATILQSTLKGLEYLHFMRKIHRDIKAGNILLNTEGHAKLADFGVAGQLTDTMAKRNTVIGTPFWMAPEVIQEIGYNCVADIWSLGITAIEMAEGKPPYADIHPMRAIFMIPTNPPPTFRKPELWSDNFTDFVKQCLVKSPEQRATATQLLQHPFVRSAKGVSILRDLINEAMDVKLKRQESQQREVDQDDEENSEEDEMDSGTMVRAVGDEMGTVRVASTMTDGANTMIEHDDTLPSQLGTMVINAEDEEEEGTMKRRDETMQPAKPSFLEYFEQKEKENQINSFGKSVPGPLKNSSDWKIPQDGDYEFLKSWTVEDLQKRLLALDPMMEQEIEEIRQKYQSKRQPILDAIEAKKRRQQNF
Procedure for STK3: Temperature-dependent protein unfolding profiles were measured using a Real-Time PCR Mx3005p machine (Stratagene: San Diego, CA, USA). Data evaluation and melting temperature calculation were performed using Protein Thermal Shift™ Software v1.2.
To further evaluate binding of these compounds to STK3/4, differential scanning fluorimetry (protein thermal shift using ThermoFluor technology) assay was used to benchmark the capacity to stabilize the kinase domain. The melting temperature (Tm) of STK3 or STK4 was measured in the presence of vehicle (DMSO) or 6, 11 or 23.

What is called IC50 is the concentration that gives 50% inhibition. In general, ΔTm refers to the change in melting temperature against a reference sample. What is called AUC(0-t) is the area under the concentration-time curve up to a stated or last time point. The low end stands for low exposure, the high end for high exposure. As a reminder, the Cmax is the peak of the concentration-time curve. In general, Tmax refers to the time at which the peak concentration occurs. The half-life is how long it takes for the measured level to halve. The low end stands for fast loss, the high end for slow loss. As usually defined, the solubility is the dissolved amount per volume that the medium holds. As for `OC1CCN(c2ncnc3[nH]cc(-c4cccc(Cl)c4)c23)CC1` [Compound 16, 1-(5-(3-Chlorophenyl)-7H-pyrrolo[2,3-d]pyrimidin-4-yl)piperidin-4-ol], on STK4, the 50% inhibitory concentration (IC50) was below 1000 nM. In addition, on STK3, the Tm shift entry is given as “comparable results” and the ΔTm at 10 µM was 8 °C. For the same molecule, the “YAP/TAZ-TEAD activity (luciferase reporter)” value (from here on “YAP/TAZ-TEAD activity”) in series [1] is recorded as “marked increase”. The concentration at 1 h in series [2] (20 mg/kg) was found to be 5.9 µM. In series [2] (setting [4]), the concentration at 30 min amounted to 11.6 µM. Also, in series [3], the “levels of Thr35-phosphorylated MOB1 in liver vs vehicle” value (shortened to “levels … vs vehicle”) is given as “significant reduction” and the “Relative decrease in liver p-MOB1 level” value came out at 78%**. Also, in “in vivo”, the AUC(0-t) stood at 4.3 µM·h, the Cmax was found to be 5.8 µM, the time of peak concentration (Tmax) stood at 15 min and the half-life was 594 min. Further, the solubility in “Kinetic solubility” (setting [5]) stood at 352 µM (≈ 116 µg/mL). Moreover, the solubility in the series “Kinetic solubility” (setting [6]) was 294 µM (≈ 96.5 µg/mL). Further, in “Kinetic solubility” (setting [7]), the solubility was 189 µM (≈ 62.1 µg/mL). Further, the solubility in “Kinetic solubility” (PBS pH 7.4, read-out: Solubility, Buffer (pH = 7.4)) amounted to 188.5 µM (≈ 62 µg/mL).

`Clc1cccc(-c2c[nH]c3nccc(N4CCOCC4)c23)c1` [Compound 23, 4-(3-(3-chlorophenyl)-1H-pyrrolo[2,3-b]pyridin-4-yl)morpholine]: on STK4, the IC50 is below 1000 nM. In addition, on STK3, the Tm shift is above 7.4 °C and the thermal shift (ΔTm) at 10 µM came out at 7.9 °C. The “YAP/TAZ-TEAD activity” value in series [1] was “marked increase”. In series [2] (20 mg/kg), this molecule registered a concentration at 30 min of 7.1 µM and a concentration at 1 h of 16.6 µM. Further, the “Relative decrease in liver p-MOB1 level” value in series [3] is recorded as 33%. Also, the solubility in the series “Kinetic solubility” (setting [5]) was determined as 372 µM (≈ 117 µg/mL). Besides, the solubility in the series “Kinetic solubility” (setting [6]) turned out to be 7 µM (≈ 2.2 µg/mL). The solubility in “Kinetic solubility” (setting [7]) is below 0.6 µM.

In the case of `CC(=O)NC1CCN(c2ncnc3[nH]cc(-c4cccc(Cl)c4)c23)CC1` [Compound 105, N-(1-(5-(3-chlorophenyl)-7H-pyrrolo[2,3-d]pyrimidin-4-yl)piperidin-4-yl)acetamide], at STK4, the IC50 is below 1000 nM. In series [2] (20 mg/kg), this molecule registered a concentration at 30 min of 8.7 µM and a concentration at 1 h of 4.6 µM. In series [3], the “levels … vs vehicle” value is listed as “significant reduction” and the “Relative decrease in liver p-MOB1 level” value turned out to be 99%**. Further, in the series “in vivo”, the AUC(0-t) came out at 8.1 µM·h, the Cmax was 11.8 µM, the Tmax was 15 min and the half-life is 318 min.

As for `Clc1cccc(-c2c[nH]c3ncnc(N4CCOCC4)c23)c1` [Compound 6, 4-(5-(3-Chlorophenyl)-7H-pyrrolo[2,3-d]pyrimidin-4-yl)morpholine], the half-maximal inhibitory concentration (IC50) at STK4 was below 1000 nM. The ΔTm at 10 µM on STK3 turned out to be 8.1 °C. Further, the “YAP/TAZ-TEAD activity” value in series [1] is “marked increase”. Also, the concentration at 30 min in series [2] (20 mg/kg) came to 6.9 µM. Also, the concentration at 1 h in series [2] (20 mg/kg) is 15.3 µM. The solubility in “Kinetic solubility” (setting [5]) amounted to 353 µM (≈ 111 µg/mL); in “Kinetic solubility” (setting [6]), 35.7 µM (≈ 11.2 µg/mL); in the series “Kinetic solubility” (setting [7]), 9.2 µM (≈ 2.9 µg/mL).

As to `NC(=O)c1cccc(-c2c[nH]c3ncnc(N4CCOCC4)c23)c1` [Compound 11, 3-(4-Morpholino-7H-pyrrolo[2,3-d]pyrimidin-5-yl)benzamide], the shift in melting temperature (ΔTm) at 10 µM at STK3 was determined as 7.4 °C. For the same molecule, the “YAP/TAZ-TEAD activity” value in series [1] was “marked increase”. In series [2] (20 mg/kg), the concentration at 1 h amounted to 23.2 µM. Moreover, in series [2] (setting [4]), the concentration at 30 min came to 15.9 µM. The “inhibition of MOB1 phosphorylation in liver” value in series [3] (10 mg/kg intraperitoneal, 1, 2, 3 h) is “maximum inhibition of MOB1 phosphorylation observed at 1 h”. In addition, in series [3], the “levels … vs vehicle” value is reported as “significant reduction”. In “in vivo”, the AUC(0-t) turned out to be 9.5 µM·h, the peak level (Cmax) was 10.9 µM, the Tmax came to 30 min and the half-life was 42 min. The solubility in the series “Kinetic solubility” (setting [5]) amounted to 430 µM (≈ 139 µg/mL). The solubility in “Kinetic solubility” (setting [6]) is 136 µM (≈ 43.8 µg/mL). For the same molecule, the solubility in the series “Kinetic solubility” (setting [7]) came to 145 µM (≈ 46.9 µg/mL).
